Patent publication US9770026B2, “Substituted pyrimidine compound and uses thereof” (Shenyang Sinochem Agrochemicals R&D Co., Ltd., priority 2012, dated 2017)

Experiments:
cucumber gray mold = assay: fungicidal activity in vitro (inhibition rate) against cucumber gray mold; format: cell-based; conditions: 25 ppm, in vitro; read-out: inhibition rate against cucumber gray mold
Diamond back moth = assay: insecticidal activity against diamond back moth, airbrush spray; format: in vivo; conditions: 72 h, 600 mg/L
In short: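 Airbrush leaf-disc spray test: both faces of 2 cm cabbage discs received 0.5 ml of test solution at 0.7 kg/cm^2. Solutions were made in acetone:methanol (1:1) and brought to concentration with 0.1% Tween 80 in water. Ten second-instar larvae per disc, triplicates, were held at 25° C and 60˜70% R.H., with mortality recorded at 72 hrs.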

armyworm = assay: bioactivity test against armyworm, airbrush spray; format: in vivo; conditions: 72 h, 600 mg/L; read-out: Insecticidal activity against armyworm (%)
[1] = tested on: Green peach aphids (Myzus Persicae Sulzer); assay: bioactivity test against green peach aphid, airbrush foliar spray; format: in vivo; conditions: Myzus persicae, foliar, 48 h, contrastive test, read-out: Insecticidal activity against peach aphid (%); for pest or weed control at 10 µg/mL: 10 mg/L; for pest or weed control at 100 µg/mL: 100 mg/L; for pest or weed control at 600 µg/mL: 600 mg/L
In short: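 Death rate was scored at 48 hrs, held at 25±1 C and 60±5% RH, following airbrush foliar spray (0.5 mL, 10 psi) onto cabbage leaf discs bearing about 15-30 aphids. Test solutions: compound dissolved in 1:1 acetone:methanol, brought to concentration with 0.1% tween 80 water.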

carmine spider mite = assay: bioactivity test against carmine spider mite, airbrush spray; format: in vivo; conditions: Tetranychus cinnabarinus, 72 h, 600 mg/L; contrastive test; read-out: Insecticidal activity against carmine spider mite (% )
In short: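 Broadbean seedlings infested with adult mites were sprayed with compound (acetone/methanol stock diluted in 0.1% Tween 80 water) by airbrush at 0.7 kg/cm^2, 0.5 ml. Three replicates were run. Mortality was scored after 72 hrs.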

corn rust = assay: protectant activity in vivo against corn rust; conditions: Zea mays, 168 h, protectant activity; for pest or weed control at 6.25 µg/mL: read-out: control effect against corn rust (%), 6.25 mg/L; for pest or weed control at 25 µg/mL: read-out: control effect against corn rust (%), 25 mg/L; for pest or weed control at 100 µg/mL: read-out: control effect against corn rust (%), 100 mg/L; for pest or weed control at 400 µg/mL: read-out: control effect against corn rust (%), 400 mg/L
wheat powdery mildew = assay: protectant activity in vivo against wheat powdery mildew; conditions: Triticum aestivum, 168 h, protectant activity; for pest or weed control at 400 µg/mL: read-out: control effect against wheat powdery mildew (%), 400 mg/L; for pest or weed control at 6.25 µg/mL: read-out: control effect against wheat powdery mildew (%), 6.25 mg/L; for pest or weed control at 25 µg/mL: read-out: control effect against wheat powdery mildew (%), 25 mg/L; for pest or weed control at 100 µg/mL: read-out: control effect against wheat powdery mildew (%), 100 mg/L
cucumber downy mildew = assay: protectant activity in vivo against cucumber downy mildew; conditions: Cucumis sativus, 168 h, protectant activity; for pest or weed control at 400 µg/mL: read-out: control effect against cucumber downy mildew (%), 400 mg/L; for pest or weed control at 25 µg/mL: read-out: control effect against cucumber downy mildew (%), 25 mg/L; for pest or weed control at 50 µg/mL: read-out: control effect against cucumber downy mildew (%), 50 mg/L; for pest or weed control at 100 µg/mL: read-out: control effect against cucumber downy mildew (%), 100 mg/L

CCOC(=O)c1ccc(Oc2ccc(CCNc3cc(Cl)ncn3)cc2)nc1 [CK74, reference compound]
inhibition at 25 ppm (cucumber gray mold): 0%
pest or weed control at 600 µg/mL (Diamond back moth): 0%
pest or weed control at 600 µg/mL (armyworm): 0%
pest or weed control at 10 µg/mL [1]: 26%
pest or weed control at 100 µg/mL [1]: 100%
pest or weed control at 600 µg/mL [1]: 100%
pest or weed control at 600 µg/mL (carmine spider mite): 0%
pest or weed control at 6.25 µg/mL (corn rust): 85%
pest or weed control at 25 µg/mL (corn rust): 90%
pest or weed control at 100 µg/mL (corn rust): 100%
pest or weed control at 400 µg/mL (corn rust): 100%
pest or weed control at 400 µg/mL (wheat powdery mildew): 0%
pest or weed control at 400 µg/mL (cucumber downy mildew): 50%

COC(=O)c1ccc(Oc2ccc(CCNc3cc(Cl)nc(C)n3)cc2)nc1 [CK79, reference compound]
inhibition at 25 ppm (cucumber gray mold): 0%
pest or weed control at 600 µg/mL (Diamond back moth): 0%
pest or weed control at 600 µg/mL (armyworm): 0%
pest or weed control at 10 µg/mL [1]: 0%
pest or weed control at 100 µg/mL [1]: 16%
pest or weed control at 600 µg/mL [1]: 100%
pest or weed control at 600 µg/mL (carmine spider mite): 27%
pest or weed control at 400 µg/mL (corn rust): 0%
pest or weed control at 400 µg/mL (wheat powdery mildew): 0%
pest or weed control at 400 µg/mL (cucumber downy mildew): 85%

FC(F)(F)c1cnc(Oc2ccc(CCNc3cc(Cl)ncn3)cc2)c(Cl)c1 [CK70, reference compound]
inhibition at 25 ppm (cucumber gray mold): 0%
pest or weed control at 600 µg/mL (Diamond back moth): 0%
pest or weed control at 600 µg/mL (armyworm): 0%
pest or weed control at 10 µg/mL [1]: 0%
pest or weed control at 100 µg/mL [1]: 0%
pest or weed control at 600 µg/mL [1]: 81%
pest or weed control at 600 µg/mL (carmine spider mite): 13%
pest or weed control at 6.25 µg/mL (corn rust): 0%
pest or weed control at 25 µg/mL (corn rust): 10%
pest or weed control at 100 µg/mL (corn rust): 30%
pest or weed control at 400 µg/mL (corn rust): 100%
pest or weed control at 6.25 µg/mL (wheat powdery mildew): 0%
pest or weed control at 25 µg/mL (wheat powdery mildew): 0%
pest or weed control at 100 µg/mL (wheat powdery mildew): 0%
pest or weed control at 400 µg/mL (wheat powdery mildew): 98%
pest or weed control at 25 µg/mL (cucumber downy mildew): 0%
pest or weed control at 50 µg/mL (cucumber downy mildew): 30%
pest or weed control at 100 µg/mL (cucumber downy mildew): 60%
pest or weed control at 400 µg/mL (cucumber downy mildew): 100%

FC(F)(F)c1cccnc1Oc1ccc(CCNc2cc(Cl)ncn2)cc1 [CK80, reference compound]
inhibition at 25 ppm (cucumber gray mold): 0%
pest or weed control at 600 µg/mL (Diamond back moth): 0%
pest or weed control at 600 µg/mL (armyworm): 0%
pest or weed control at 10 µg/mL [1]: 16%
pest or weed control at 100 µg/mL [1]: 40%
pest or weed control at 600 µg/mL [1]: 87%
pest or weed control at 600 µg/mL (carmine spider mite): 6%
pest or weed control at 6.25 µg/mL (corn rust): 0%
pest or weed control at 25 µg/mL (corn rust): 20%
pest or weed control at 100 µg/mL (corn rust): 85%
pest or weed control at 400 µg/mL (corn rust): 100%
pest or weed control at 6.25 µg/mL (wheat powdery mildew): 0%
pest or weed control at 25 µg/mL (wheat powdery mildew): 0%
pest or weed control at 100 µg/mL (wheat powdery mildew): 80%
pest or weed control at 400 µg/mL (wheat powdery mildew): 100%
pest or weed control at 400 µg/mL (cucumber downy mildew): 85%

N#Cc1ccc(Oc2ccc(CCNc3nc(Cl)ncc3Cl)cc2)nc1 [CK26, reference compound]
inhibition at 25 ppm (cucumber gray mold): 0%
pest or weed control at 600 µg/mL (Diamond back moth): 0%
pest or weed control at 600 µg/mL (armyworm): 0%
pest or weed control at 10 µg/mL [1]: 45%
pest or weed control at 100 µg/mL [1]: 48%
pest or weed control at 600 µg/mL [1]: 100%
pest or weed control at 600 µg/mL (carmine spider mite): 0%
pest or weed control at 6.25 µg/mL (corn rust): 0%
pest or weed control at 25 µg/mL (corn rust): 0%
pest or weed control at 100 µg/mL (corn rust): 0%
pest or weed control at 400 µg/mL (corn rust): 100%
pest or weed control at 400 µg/mL (wheat powdery mildew): 70%
pest or weed control at 25 µg/mL (cucumber downy mildew): 0%
pest or weed control at 50 µg/mL (cucumber downy mildew): 40%
pest or weed control at 100 µg/mL (cucumber downy mildew): 60%
pest or weed control at 400 µg/mL (cucumber downy mildew): 100%
